Experimental findings from patent publication US20230102554A1 (GB002, INC., priority 2019, published 2023) are described below.

Usually IC50 stands for the midpoint of a concentration-inhibition curve.

Experiment [1] deals with T1, Human PDGFRβ, cytoplasmic domain (GST-PDGFRβ) (Homo sapiens, UniProt P09619).
T1 construct: made in house
Put plainly: Human PDGFRβ biochemical inhibition assay (off-chip Mobility Shift Assay). An outline of the steps:
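GST-tagged cytoplasmic domain (aa 557-1106) from baculovirus was incubated 1 h at room temperature with compound, CSKtide, ATP at Km and Mg²⁺ in HEPES buffer, pH 7.5. Phosphorylated and unphosphorylated peptide were separated by off-chip mobility shift, and the product ratio P/(P+S) gave percent inhibition.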

The target of experiment [2] is T2, Human PDGFRα, cytoplasmic domain (GST-PDGFRα) (Homo sapiens, UniProt P16234).
T2 construct: made in house
T2 sequence (P16234 550-1089 T674I): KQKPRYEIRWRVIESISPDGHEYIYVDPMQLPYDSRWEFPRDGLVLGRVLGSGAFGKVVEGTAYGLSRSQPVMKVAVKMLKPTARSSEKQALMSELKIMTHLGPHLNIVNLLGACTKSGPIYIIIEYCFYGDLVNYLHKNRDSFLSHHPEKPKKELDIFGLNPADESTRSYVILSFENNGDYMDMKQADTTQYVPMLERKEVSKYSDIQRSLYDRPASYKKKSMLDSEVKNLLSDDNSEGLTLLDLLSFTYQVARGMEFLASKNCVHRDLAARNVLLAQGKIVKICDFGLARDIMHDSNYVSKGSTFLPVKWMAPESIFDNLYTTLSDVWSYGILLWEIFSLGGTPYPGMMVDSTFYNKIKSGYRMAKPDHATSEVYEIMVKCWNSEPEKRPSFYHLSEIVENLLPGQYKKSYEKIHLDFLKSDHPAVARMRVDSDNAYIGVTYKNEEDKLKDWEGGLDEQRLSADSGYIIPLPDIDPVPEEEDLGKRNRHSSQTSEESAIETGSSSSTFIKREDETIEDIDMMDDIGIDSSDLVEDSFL
The experiment in a line: Human PDGFRα biochemical inhibition assay (off-chip Mobility Shift Assay).

T1 sequence (P09619 with tags, fused parts or gaps): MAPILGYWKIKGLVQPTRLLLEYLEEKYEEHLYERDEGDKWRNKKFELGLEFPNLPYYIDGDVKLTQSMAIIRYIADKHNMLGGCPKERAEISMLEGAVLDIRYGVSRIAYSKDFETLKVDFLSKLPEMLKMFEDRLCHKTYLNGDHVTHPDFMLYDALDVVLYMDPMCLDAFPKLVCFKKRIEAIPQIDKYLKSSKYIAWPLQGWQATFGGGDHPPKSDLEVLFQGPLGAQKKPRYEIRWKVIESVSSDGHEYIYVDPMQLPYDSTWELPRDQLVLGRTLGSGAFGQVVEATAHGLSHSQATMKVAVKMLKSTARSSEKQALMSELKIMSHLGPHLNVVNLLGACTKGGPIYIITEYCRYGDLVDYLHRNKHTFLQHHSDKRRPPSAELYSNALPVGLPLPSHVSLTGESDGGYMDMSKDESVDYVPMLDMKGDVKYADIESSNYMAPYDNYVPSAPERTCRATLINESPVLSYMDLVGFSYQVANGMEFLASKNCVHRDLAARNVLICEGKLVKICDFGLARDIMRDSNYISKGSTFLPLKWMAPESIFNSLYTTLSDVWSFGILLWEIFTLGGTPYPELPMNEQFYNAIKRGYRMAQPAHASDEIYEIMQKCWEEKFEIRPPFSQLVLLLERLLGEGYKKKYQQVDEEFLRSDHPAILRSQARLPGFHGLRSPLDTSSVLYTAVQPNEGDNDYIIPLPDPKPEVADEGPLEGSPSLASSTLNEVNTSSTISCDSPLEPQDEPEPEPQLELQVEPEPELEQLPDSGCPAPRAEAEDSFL

In the case of `CCn1cc2ncc(N[C@@H](C)c3cc(NC(=O)c4ccc(CN5CCOCC5)c(C)c4)ccc3C)nc2n1` [Compound 523, (S)-N-(3-(1-((2-ethyl-2H-pyrazolo[3,4-b]pyrazin-6-yl)amino)ethyl)-4-methylphenyl)-3-methyl-4-(morpholinomethyl) benzamide], the IC50 in experiment [1] and in experiment [2] was less than 300 nM each time.

In the case of `CCn1cc2ncc(N[C@@H](C)c3cc(NC(=O)c4cc(F)c(CN5CCN(C)CC5)c(Cl)c4)ccc3C)nc2n1` [Compound 518, (S)-3-chloro-N-(3-(1-((2-ethyl-2H-pyrazolo[3,4-b]pyrazin-6-yl)amino)ethyl)-4-methylphenyl)-5-fluoro-4-((4-methylpiperazin-1-yl)methyl)benzamide], the concentration for half-maximal inhibition (IC50) in experiment [1] and in experiment [2] was less than 300 nM in each case.

On to `CCn1cc2ncc(N[C@@H](C)c3cccc(NC(=O)c4ccc(OC(F)(F)F)nc4)c3)nc2n1` [Compound 282, (S)-N-(3-(1-((2-ethyl-2H-pyrazolo[3,4-b]pyrazin-6-yl)amino)ethyl)phenyl)-6-(trifluoromethoxy)nicotinamide], for which the IC50 is 300 to 1000 nM in experiment [1] and less than 300 nM in experiment [2].

As to `Cc1cc(C(=O)Nc2cccc([C@H](C)Nc3cnc4cnn(C)c4n3)c2)cnn1` [Compound 132, (S)-6-methyl-N-(3-(1-((1-methyl-1H-pyrazolo[3,4-b]pyrazin-6-yl)amino)ethyl)phenyl)pyridazine-4-carboxamide], the IC50 in experiment [1] was not below 1000 nM; in experiment [2], less than 300 nM.

With `CCn1cc2ncc(N[C@@H](C)c3cccc(NC(=O)c4cnc(OC(C)C)c(C)c4)c3)nc2n1` [Compound 327, (S)-N-(3-(1-((2-ethyl-2H-pyrazolo[3,4-b]pyrazin-6-yl)amino)ethyl)phenyl)-6-isopropoxy-5-methylnicotinamide], the IC50 in experiment [1] and in experiment [2] was less than 300 nM in each case.

With `Cc1cnn(C(=O)Nc2cccc([C@H](C)Nc3cnc4cnn(C)c4n3)c2)c1` [Compound 168, (S)-4-methyl-N-(3-(1-((1-methyl-1H-pyrazolo[3,4-b]pyrazin-6-yl)amino)ethyl)phenyl)-1H-pyrazole-1-carboxamide], the values for the IC50 in experiment [1] and in experiment [2] were not below 1000 nM and less than 300 nM, respectively.

Turning to `CCn1cc2ncc(N[C@@H](C)c3cccc(NC(=O)c4cnc(C(F)(F)F)c(C)c4)c3)nc2n1` [Compound 288, (S)-N-(3-(1-((2-ethyl-2H-pyrazolo[3,4-b]pyrazin-6-yl)amino)ethyl)phenyl)-5-methyl-6-(trifluoromethyl)nicotinamide], the half-inhibitory concentration (IC50) in experiment [1] and in experiment [2] was less than 300 nM in each case.

On to `Cc1ccc(C(=O)Nc2cccc([C@H](C)Nc3cnc4cnn(C)c4n3)c2)cc1C` [Compound 234, (S)-3,4-dimethyl-N-(3-(1-((1-methyl-1H-pyrazolo[3,4-b]pyrazin-6-yl)amino)ethyl)phenyl)benzamide], for which the IC50 in experiment [1] and in experiment [2] was less than 300 nM throughout.

For `CCn1cc2ncc(N[C@@H](C)c3cc(NC(=O)c4ccc(CN5CCN(C)CC5)c(C)c4)ccc3F)nc2n1` [Compound 457, (S)-N-(3-(1-((2-ethyl-2H-pvrazolo[3,4-b]pyrazin-6-yl)amino)ethyl)-4-fluorophenyl)-3 methyl-4-((4-methylpiperazin-1-yl)methyl)benzamide], the IC50 in experiment [1] and in experiment [2] was less than 300 nM throughout.

On to `Cc1cncc(C(=O)Nc2cccc([C@H](C)Nc3cnc4cc(C)oc4c3)c2)c1` [Compound 22, (S)-5-methyl-N-(3-(1-((2-methylfuro[3,2-b]pyridin-6-yl)amino)ethyl)phenyl)nicotinamide], for which the IC50 in experiment [1] and in experiment [2] was less than 300 nM throughout.

Take `CCn1cc2ncc(N[C@@H](C)c3cccc(NC(=O)Cc4ccccc4F)c3)nc2n1` [Compound 451, (S)-N-(3-(1-((2-ethyl-2H-pyrazolo[3,4-b]pyrazin-6-yl)amino)ethyl)phenyl)-2-(2-fluorophenyl)acetamide]: the concentration for half-maximal inhibition (IC50) in experiment [1] was 300 to 1000 nM; in experiment [2] it was less than 300 nM.

For `CCn1cc2ncc(N[C@@H](C)c3cccc(NC(=O)c4ccc(C#N)cc4)c3)nc2n1` [Compound 346, (S)-4-cyano-N-(3-(1-((2-ethyl-2H-pyrazolo[3,4-b]pyrazin-6-yl)amino)ethyl)phenyl)benzamide], the concentration for half-maximal inhibition (IC50) in experiment [1] and in experiment [2] was 300 to 1000 nM each time.

For `CCn1cc2ncc(N[C@@H](C)c3cc(NC(=O)c4cncc(C)c4)ccc3C)cc2n1` [Compound 501, (S)-N-(3-(1-((2-ethyl-2H-pyrazolo[4,3-b]pyridin-6-yl)amino)ethyl)-4-methylphenyl)-5-methylnicotinamide], the concentration for half-maximal inhibition (IC50) in experiment [1] and in experiment [2] was less than 300 nM in each case.

As for `CCn1cc2ncc(N[C@@H](C)c3cccc(NC(=O)Cc4cc(F)cc(Cl)c4)c3)nc2n1` [Compound 641, (S)-2-(3-chloro-5-fluorophenyl)-N-(3-(1-((2-ethyl-2H-pyrazolo[3,4-b]pyrazin-6-yl)amino)ethyl)phenyl)acetamide], the IC50 in experiment [1] and in experiment [2] was less than 300 nM each time.

Consider `Cc1cncc(C(=O)Nc2cccc([C@H](C)Nc3cnc4cccc(Cl)c4n3)c2)c1` [Compound 37, (S)-N-(3-(1-((8-chloroquinoxalin-2-yl)amino)ethyl)phenyl)-5-methylnicotinamide], for which the concentration for half-maximal inhibition (IC50) in experiment [1] and in experiment [2] was less than 300 nM each time.

In the case of `COc1ccc(Cn2ccc3ncc(N[C@@H](C)c4cccc(NC(=O)c5cncc(C)c5)c4)nc32)cc1OC` [Compound 88, (S)-N-(3-(1-((5-(3,4-dimethoxybenzyl)-5H-pyrrolo [2,3-b]pyrazin-3-yl)amino)ethyl)phenyl)-5-methylnicotinamide], the concentration for half-maximal inhibition (IC50) in experiment [1] is not below 1000 nM; in experiment [2] it was less than 300 nM.

Turning to `C[C@H](Nc1cnc2cn[nH]c2n1)c1cccc(NC(=O)c2cncc(CO)c2)c1` [Compound 92, (S)-N-(3-(1-((1H-pyrazolo[3,4-b]pyrazin-6-yl)amino)ethyl)phenyl)-5-(hydroxymethyl) nicotinamide], the IC50 was not below 1000 nM in experiment [1] and less than 300 nM in experiment [2].

For the molecule `Cc1cncc(C(=O)Nc2cccc([C@H](C)Nc3cnc4cnn(CC5CC5)c4n3)c2)c1` [Compound 181, (S)-N-(3-(1-((1-(cyclopropylmethyl)-1H-pyrazolo[3,4-b]pyrazin-6-yl)amino)ethyl)phenyl)-5-methylnicotinamide], the IC50 in experiment [1] and in experiment [2] was less than 300 nM throughout.

`Cc1cc(C(=O)Nc2cccc([C@H](C)Nc3cnc4cnn(C)c4n3)c2)cnc1N1CC2(COC2)C1` [Compound 259, (S)-5-methyl-N-(3-(1-((1-methyl-1H-pyrazolo[3,4-b]pyrazin-6-yl)amino)ethyl)phenyl)-6-(2-oxa-6-azaspiro[3.3]heptan-6-yl) nicotinamide]: the 50% inhibitory concentration (IC50) in experiment [1] and in experiment [2] was less than 300 nM each time.

In the case of `CCn1cc2ncc(N[C@@H](C)c3cccc(NC(=O)c4cnn(CCF)c4)c3)nc2n1` [Compound 298, (S)-N-(3-(1-((2-ethyl-2H-pyrazolo[3,4-b]pyrazin-6-yl)amino)ethyl)phenyl)-1-(2-fluoroethyl)-1H-pyrazole-4-carboxamide], the results for the concentration for half-maximal inhibition (IC50) in experiment [1] and in experiment [2] were 300 to 1000 nM and less than 300 nM, respectively.

In the case of `C[C@H](Nc1cnc2cnn(C)c2n1)c1cccc(NC(=O)c2ccc(C(F)F)s2)c1` [Compound 134, (S)-5-(difluoromethyl)-N-(3-(1-((1-methyl-1H-pyrazolo[3,4-b]pyrazin-6-yl)amino)ethyl)phenyl)thiophene-2-carboxamide], the half-inhibitory concentration (IC50) in experiment [1] and in experiment [2] was less than 300 nM throughout.
